Assay results as given in patent publication US12077503B2, “Substituted cyclic amides and their use as herbicides” (FMC CORPORATION, priority 2015, dated 2024).

How the values were obtained:
Type in all cases: in vivo
[1] = tested on: ivy-leaved morning glory (Ipomoea hederacea); test: Test G Pre-Emergence Protocol; details: Ipomoea, pre-emergence, 312 h, evaluated after 13 days; for pest or weed control at 15.625 g/ha: 15.625 g ai/ha, read-out: Morning-glory, Ivy-leaved damage rating (100=total damage to plant; 0=no damage to plant); for pest or weed control at 62.5 g/ha: 62.5 g ai/ha, 100=total damage to plant, 0=no damage to plant, read-out: plant damage rating, Morningglory, Ivy-leaved; for pest or weed control at 250 g/ha: 250 g ai/ha, read-out: Morningglory, Ivy-leaved damage rating (100=total damage to plant; 0=no damage to plant)
Method: (§1) Seeds of corn (Zea mays), giant foxtail (Setaria faberi), barnyardgrass (Echinochloa crus-galli), ivy-leaved morning glory (Ipomoea hederacea), redroot pigweed (Amaranthus retroflexus) and velvetleaf (Abutilon theophrasti) were sown in standard soil in pots. After cultivation for one day under controlled conditions in a glasshouse (at 24/16° C., day/night; 14 hours light; 65% humidity), the plants were sprayed with an aqueous spray solution derived from the formulation of the technical active ingredient in acetone/water (50:50) solution containing 0.5% Tween 20 (polyoxyethylene sorbitan monolaurate, CAS RN 9005-64-5) to give a final dose of 15.625, 62.5 or 250 g/ha of test compound.
(§2) The test plants were then grown on under controlled conditions in a glasshouse (at 24/16° C., day/night; 14 hours light; 65% humidity) and watered twice daily. After 13 days the test was evaluated (100=total damage to plant; 0=no damage to plant). A dash (-) means no test result.

[2] = tested on: redroot pigweed (Amaranthus retroflexus); test: Test G Pre-Emergence Protocol; details: Amaranthus retroflexus, pre-emergence, 312 h, evaluated after 13 days; for pest or weed control at 15.625 g/ha: 15.625 g ai/ha; for pest or weed control at 15.625 g/ha / pest or weed control at 250 g/ha: read-out: Pigweed, Redroot damage rating (100=total damage to plant; 0=no damage to plant); for pest or weed control at 62.5 g/ha: 62.5 g ai/ha, 100=total damage to plant, 0=no damage to plant, read-out: plant damage rating, Pigweed, Redroot; for pest or weed control at 250 g/ha: 250 g ai/ha
Method: as §1, §2

corn (Zea mays) [3] = test: Test G Pre-Emergence Protocol; details: Zea mays, pre-emergence, 312 h, evaluated after 13 days; for plant injury at 15.625 g/ha: 15.625 g ai/ha; for plant injury at 15.625 g/ha / plant injury at 250 g/ha: read-out: Corn damage rating (100=total damage to plant; 0=no damage to plant); for plant injury at 62.5 g/ha: 62.5 g ai/ha, 100=total damage to plant, 0=no damage to plant, read-out: plant damage rating, Corn; for plant injury at 250 g/ha: 250 g ai/ha
Method: as §1, §2

[4] = tested on: velvetleaf (Abutilon theophrasti); test: Test G Pre-Emergence Protocol; details: Abutilon theophrasti, pre-emergence, 312 h, evaluated after 13 days; for pest or weed control at 15.625 g/ha: 15.625 g ai/ha; for pest or weed control at 15.625 g/ha / pest or weed control at 250 g/ha: read-out: Velvetleaf damage rating (100=total damage to plant; 0=no damage to plant); for pest or weed control at 62.5 g/ha: 62.5 g ai/ha, 100=total damage to plant, 0=no damage to plant, read-out: plant damage rating, Velvetleaf; for pest or weed control at 250 g/ha: 250 g ai/ha
Method: as §1, §2

[5] = tested on: barnyardgrass (Echinochloa crus-galli); test: Test G Pre-Emergence Protocol; details: Echinochloa crus-galli, pre-emergence, 312 h, evaluated after 13 days; for pest or weed control at 15.625 g/ha: 15.625 g ai/ha, read-out: Barnyard grass damage rating (100=total damage to plant; 0=no damage to plant); for pest or weed control at 62.5 g/ha: 62.5 g ai/ha, 100=total damage to plant, 0=no damage to plant, read-out: plant damage rating, Barnyardgrass; for pest or weed control at 250 g/ha: 250 g ai/ha, read-out: Barnyardgrass damage rating (100=total damage to plant; 0=no damage to plant)
Method: as §1, §2

[6] = tested on: giant foxtail (Setaria faberi); test: Test G Pre-Emergence Protocol; details: Setaria faberi, pre-emergence, 312 h, evaluated after 13 days; for pest or weed control at 15.625 g/ha: 15.625 g ai/ha; for pest or weed control at 15.625 g/ha / pest or weed control at 250 g/ha: read-out: Foxtail, Giant damage rating (100=total damage to plant; 0=no damage to plant); for pest or weed control at 62.5 g/ha: 62.5 g ai/ha, 100=total damage to plant, 0=no damage to plant, read-out: plant damage rating, Foxtail, Giant; for pest or weed control at 250 g/ha: 250 g ai/ha
Method: as §1, §2

[7] = tested on: ivy-leaved morning glory (Ipomoea hederacea); test: Test G Post-Emergence Protocol; details: Ipomoea, post-emergence, 312 h; for pest or weed control at 15.625 g/ha: 15.625 g ai/ha, evaluated after 13 days (100=total damage to plant; 0=no damage to plant), read-out: Morningglory, Ivy-leaved damage rating; for pest or weed control at 62.5 g/ha: 62.5 g ai/ha, read-out: Morningglory, Ivy-leaved damage rating (100=total damage to plant; 0=no damage to plant); for pest or weed control at 62.5 g/ha / pest or weed control at 250 g/ha: evaluated after 13 days; for pest or weed control at 250 g/ha: 250 g ai/ha, read-out: damage to plant, Morningglory, Ivy-leaved (100=total damage to plant; 0=no damage to plant)
Method: as §1, with “8 days” for “one day”
as §2

[8] = tested on: redroot pigweed (Amaranthus retroflexus); test: Test G Post-Emergence Protocol; details: Amaranthus retroflexus, post-emergence, 312 h; for pest or weed control at 15.625 g/ha: 15.625 g ai/ha, evaluated after 13 days (100=total damage to plant; 0=no damage to plant), read-out: Pigweed, Redroot damage rating; for pest or weed control at 62.5 g/ha: 62.5 g ai/ha, read-out: Pigweed, Redroot damage rating (100=total damage to plant; 0=no damage to plant); for pest or weed control at 62.5 g/ha / pest or weed control at 250 g/ha: evaluated after 13 days; for pest or weed control at 250 g/ha: 250 g ai/ha, read-out: damage to plant, Pigweed, Redroot (100=total damage to plant; 0=no damage to plant)
Method: as §1, with “8 days” for “one day”
as §2

corn (Zea mays) [9] = test: Test G Post-Emergence Protocol; details: Zea mays, post-emergence, 312 h; for plant injury at 15.625 g/ha: 15.625 g ai/ha, evaluated after 13 days (100=total damage to plant; 0=no damage to plant), read-out: Corn damage rating; for plant injury at 62.5 g/ha: 62.5 g ai/ha, read-out: Corn damage rating (100=total damage to plant; 0=no damage to plant); for plant injury at 62.5 g/ha / plant injury at 250 g/ha: evaluated after 13 days; for plant injury at 250 g/ha: 250 g ai/ha, read-out: damage to plant, Corn (100=total damage to plant; 0=no damage to plant)
Method: as §1, with “8 days” for “one day”
as §2

[10] = tested on: velvetleaf (Abutilon theophrasti); test: Test G Post-Emergence Protocol; details: Abutilon theophrasti, post-emergence, 312 h; for pest or weed control at 15.625 g/ha: 15.625 g ai/ha, evaluated after 13 days (100=total damage to plant; 0=no damage to plant), read-out: Velvetleaf damage rating; for pest or weed control at 62.5 g/ha: 62.5 g ai/ha, read-out: Velvetleaf damage rating (100=total damage to plant; 0=no damage to plant); for pest or weed control at 62.5 g/ha / pest or weed control at 250 g/ha: evaluated after 13 days; for pest or weed control at 250 g/ha: 250 g ai/ha, read-out: damage to plant, Velvetleaf (100=total damage to plant; 0=no damage to plant)
Method: as §1, with “8 days” for “one day”
as §2

[11] = tested on: barnyardgrass (Echinochloa crus-galli); test: Test G Post-Emergence Protocol; details: Echinochloa crus-galli, post-emergence, 312 h; for pest or weed control at 15.625 g/ha: 15.625 g ai/ha, evaluated after 13 days (100=total damage to plant; 0=no damage to plant), read-out: Barnyardgrass damage rating; for pest or weed control at 62.5 g/ha: 62.5 g ai/ha, read-out: Barnyardgrass damage rating (100=total damage to plant; 0=no damage to plant); for pest or weed control at 62.5 g/ha / pest or weed control at 250 g/ha: evaluated after 13 days; for pest or weed control at 250 g/ha: 250 g ai/ha, read-out: damage to plant, Barnyardgrass (100=total damage to plant; 0=no damage to plant)
Method: as §1, with “8 days” for “one day”
as §2

[12] = tested on: giant foxtail (Setaria faberi); test: Test G Post-Emergence Protocol; details: Setaria faberi, post-emergence, 312 h; for pest or weed control at 15.625 g/ha: 15.625 g ai/ha, evaluated after 13 days (100=total damage to plant; 0=no damage to plant), read-out: Foxtail, Giant damage rating; for pest or weed control at 62.5 g/ha: 62.5 g ai/ha, read-out: Foxtail, Giant damage rating (100=total damage to plant; 0=no damage to plant); for pest or weed control at 62.5 g/ha / pest or weed control at 250 g/ha: evaluated after 13 days; for pest or weed control at 250 g/ha: 250 g ai/ha, read-out: damage to plant, Foxtail, Giant (100=total damage to plant; 0=no damage to plant)
Method: as §1, with “8 days” for “one day”
as §2

COc1cc([C@H]2CN(C)C(=O)[C@@H]2C(=O)Nc2ccccc2F)ccc1Cl (racemic) [Compound 1421]
50%: pest or weed control at 250 g/ha [12]
60%: pest or weed control at 62.5 g/ha [5]
90%: pest or weed control at 250 g/ha [6]
70%: pest or weed control at 15.625 g/ha [6]
40%: pest or weed control at 62.5 g/ha [12]
20%: pest or weed control at 62.5 g/ha [11] | pest or weed control at 250 g/ha [11] | pest or weed control at 15.625 g/ha [12]
10%: plant injury at 250 g/ha (corn (Zea mays) [3]) | pest or weed control at 15.625 g/ha [5] | pest or weed control at 15.625 g/ha [7] | plant injury at 15.625 g/ha (corn (Zea mays) [9]) | plant injury at 62.5 g/ha (corn (Zea mays) [9]) | plant injury at 250 g/ha (corn (Zea mays) [9]) | pest or weed control at 15.625 g/ha [10]
0%: pest or weed control at 15.625 g/ha [1] | pest or weed control at 62.5 g/ha [1] | pest or weed control at 250 g/ha [1] | pest or weed control at 15.625 g/ha [2] | pest or weed control at 62.5 g/ha [2] | pest or weed control at 250 g/ha [2] | plant injury at 15.625 g/ha (corn (Zea mays) [3]) | plant injury at 62.5 g/ha (corn (Zea mays) [3]) | pest or weed control at 15.625 g/ha [4] | pest or weed control at 62.5 g/ha [4] | pest or weed control at 250 g/ha [4] | pest or weed control at 62.5 g/ha [7] | pest or weed control at 250 g/ha [7] | pest or weed control at 15.625 g/ha [8] | pest or weed control at 62.5 g/ha [8] | pest or weed control at 250 g/ha [8] | pest or weed control at 62.5 g/ha [10] | pest or weed control at 250 g/ha [10] | pest or weed control at 15.625 g/ha [11]
80%: pest or weed control at 250 g/ha [5] | pest or weed control at 62.5 g/ha [6]

Cc1c(NC(=O)[C@H]2C(=O)N(C)C[C@@H]2c2ccc(C(F)(F)F)cc2)cccc1[N+](=O)[O-] (racemic) [Compound 1423]
10%: plant injury at 15.625 g/ha (corn (Zea mays) [3]) | plant injury at 250 g/ha (corn (Zea mays) [3]) | pest or weed control at 15.625 g/ha [5] | pest or weed control at 62.5 g/ha [5] | pest or weed control at 15.625 g/ha [6] | plant injury at 15.625 g/ha (corn (Zea mays) [9]) | plant injury at 250 g/ha (corn (Zea mays) [9]) | pest or weed control at 62.5 g/ha [11] | pest or weed control at 250 g/ha [11]
0%: pest or weed control at 15.625 g/ha [1] | pest or weed control at 62.5 g/ha [1] | pest or weed control at 250 g/ha [1] | pest or weed control at 15.625 g/ha [2] | pest or weed control at 62.5 g/ha [2] | pest or weed control at 250 g/ha [2] | pest or weed control at 15.625 g/ha [4] | pest or weed control at 62.5 g/ha [4] | pest or weed control at 250 g/ha [4] | pest or weed control at 15.625 g/ha [7] | pest or weed control at 62.5 g/ha [7] | pest or weed control at 250 g/ha [7] | pest or weed control at 15.625 g/ha [8] | pest or weed control at 62.5 g/ha [8] | plant injury at 62.5 g/ha (corn (Zea mays) [9]) | pest or weed control at 15.625 g/ha [10] | pest or weed control at 62.5 g/ha [10] | pest or weed control at 250 g/ha [10] | pest or weed control at 15.625 g/ha [11] | pest or weed control at 15.625 g/ha [12]
30%: pest or weed control at 250 g/ha [5]
20%: plant injury at 62.5 g/ha (corn (Zea mays) [3]) | pest or weed control at 62.5 g/ha [12]
60%: pest or weed control at 62.5 g/ha [6] | pest or weed control at 250 g/ha [12]
50%: pest or weed control at 250 g/ha [8]
70%: pest or weed control at 250 g/ha [6]
